pIC50: −log10 of the molar value.
Experiments:
[1] = In vitro aldehyde capture capacity test (complexing with nonanal, HPLC at 254 nm)
Experimental: Objective: dry eye disease is caused by inflammation in eyes, wherein the inflammation may produce aldehydes that will accelerate the inflammation symptoms and worsen the dry eye disease if not eliminated in time. In the experiment, a better compound was selected according to the complexing capacity of the drug and aldehydes in vivo by simulating the in vivo environment.
Procedures: Sulfobutyl-B-cyclodextrin (310 mg) was dissolved in a phosphate buffer (1.25 mL) to prepare a solution.
Nonanal (5.0 mg, 32 μmol, 1.0 eq) and triolein (300 mg) were added to a reaction flask at room temperature, after addition of the prepared solution described above, linoleic acid (300 mg) was added, and finally a dimethyl sulfoxide (0.15 ml) solution containing the compound (32 μmol, 1.0 eq) of the present disclosure was added; the reaction solution was reacted at 20-23° C.
The reaction solution was reacted under stirring for 10 min, 100 min, 200 min, and 300 min respectively, and sampled for high performance liquid chromatography after the solution was stratified after standing for 2 min.
Sampling method: 25 μl of an upper emulsified layer and 50 μl of a lower aqueous phase were sampled by a pipette, and samples were diluted with 1 mL of methanol.
The ultraviolet absorption of the nonanal was weak at 254 nm, so the nonanal had little overall effect on the content of complexed products. Therefore, the percentage contents of complexes at 254 nm under high performance liquid chromatography were compared to observe aldehyde capture and complexing capacities, as shown in FIG. 1 and Table 1:
Taking The compound 7 as an example, after 300 min of reaction, the analytical method for HPLC was XBRIGE 2.5 μm, 3.0*100 mm 5-80CD_XBEH_12 min_0.8.1 cm;
Retention time 6.689 min, 6.787 min, 6.966 min, and 7.102 min were absorption peaks of products complexed with monomolecular aldehyde;
Retention time 8.905 min, 9.010 min, and 9.075 min were absorption peaks of products complexed with bimolecular aldehyde.

[2] = Pharmacokinetics in cynomolgus monkeys, single intravenous injection; format: in vivo; conditions: male, cynomolgus monkey, plasma, 1 mg/kg single intravenous injection
Experimental: Objective: To Study Pharmacokinetics of the Compound in Cynomolgus Monkeys
Experimental material: Cynomolgus Monkeys (male, 2.5-4 kg, greater than or equal to 2 years, Jingang Biotech)
Pharmacokinetic profiles of the compound were tested by intravenous administration in monkeys according to the standard protocol. In the study, the candidate compound was prepared as a clear solution, and was administered to cynomolgus monkeys at 1 mg/kg by single intravenous injection. A vehicle for intravenous injection was a 10% hydroxypropyl ß-cyclodextrin aqueous solution. Whole blood samples were collected at 0.033, 0.083, 0.25, 0.5, 1, 2, 4, 8, 12, and 24 hours, respectively, centrifuged at 3000 r for 10 min, and separated from supernatant to obtain plasma samples. 20 μL of plasma samples were mixed with 400 μL of acetonitrile precipitated proteins containing an internal standard, and 2 μL of the supernatant was injected by centrifugation. Plasma concentrations were quantified by LC-MS/MS analysis, and pharmacokinetic parameters, such as clearance, half-life, and area under the concentration-time curve, etc. were calculated.

CYP2C9 = target: T1, CYP2C9 (Homo sapiens, UniProt P11712); experiment: Inhibition of human liver microsomal cytochrome P450 CYP2C9; format: in vitro ADME; conditions: human liver microsomes, probe substrate, NADPH
T1 construct: fused human liver microsomes were selected as a CYP450 enzyme source; from tissue; host or cells: pooled ("fused") human liver microsomes
T1 sequence (P11712 whole entry, the tested form may be a part): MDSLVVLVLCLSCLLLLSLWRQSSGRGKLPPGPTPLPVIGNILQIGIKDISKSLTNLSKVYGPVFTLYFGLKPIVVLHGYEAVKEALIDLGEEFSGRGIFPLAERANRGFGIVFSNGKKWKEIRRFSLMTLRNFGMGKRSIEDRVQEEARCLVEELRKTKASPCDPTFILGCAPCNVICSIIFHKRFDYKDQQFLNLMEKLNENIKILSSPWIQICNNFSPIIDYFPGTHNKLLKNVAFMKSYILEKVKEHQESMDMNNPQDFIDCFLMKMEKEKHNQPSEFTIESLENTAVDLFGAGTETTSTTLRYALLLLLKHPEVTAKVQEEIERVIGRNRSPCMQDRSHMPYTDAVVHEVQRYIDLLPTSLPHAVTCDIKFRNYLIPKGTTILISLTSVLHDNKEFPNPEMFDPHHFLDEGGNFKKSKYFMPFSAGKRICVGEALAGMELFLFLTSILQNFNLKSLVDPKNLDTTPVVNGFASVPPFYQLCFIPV
Text: (§1) Objective: To study the inhibitory effect of compounds on human liver microsomal cytochrome P450. Experimental procedures: In the study on inhibition of the compounds on the human liver microsomal cytochrome P450 (CYP1A2, CYP2C9, CYP2C19, CYP2D6 and CYP3A4), fused human liver microsomes were selected as a CYP450 enzyme source. […]

CYP2C19 = target: T2, CYP2C19 (Homo sapiens, UniProt P33261); experiment: Inhibition of human liver microsomal cytochrome P450 CYP2C19; format: in vitro ADME; conditions: human liver microsomes, probe substrate, NADPH
T2 construct: fused human liver microsomes were selected as a CYP450 enzyme source; from tissue; host or cells: pooled ("fused") human liver microsomes
T2 sequence (P33261 whole entry, the tested form may be a part): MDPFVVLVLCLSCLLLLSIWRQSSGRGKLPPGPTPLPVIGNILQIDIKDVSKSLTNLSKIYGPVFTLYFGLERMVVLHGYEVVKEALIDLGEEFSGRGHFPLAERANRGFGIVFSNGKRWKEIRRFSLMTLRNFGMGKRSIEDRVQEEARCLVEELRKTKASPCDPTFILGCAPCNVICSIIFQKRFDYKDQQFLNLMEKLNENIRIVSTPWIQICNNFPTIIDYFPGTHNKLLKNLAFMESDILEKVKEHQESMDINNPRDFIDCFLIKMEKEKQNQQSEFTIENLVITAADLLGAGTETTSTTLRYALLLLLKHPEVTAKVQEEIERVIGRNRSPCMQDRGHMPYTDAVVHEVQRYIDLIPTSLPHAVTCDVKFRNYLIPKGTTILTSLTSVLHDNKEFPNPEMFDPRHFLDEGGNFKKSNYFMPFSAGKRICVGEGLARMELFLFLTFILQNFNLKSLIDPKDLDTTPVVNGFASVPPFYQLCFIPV
Text: as §1

clearance [2]: 6.2 mL/min/kg | AUC ([2]; read-out: Area under the concentration-time curve AUC): 9.16 µM·h | half-life ([2]; read-out: Half-time T1/2 (converted)): 3.81 h | pIC50 (CYP2C9): < 4.30 | pIC50 (CYP2C19): < 4.30
SMILES: CC(C)(O)c1ccc(-c2cnc(C(C)(C)O)c(N)c2)cc1N [Compound 3]
percentage content of complexed products at 254 nm ([1]; Time 10 min): 3.265% | percentage content of complexed products at 254 nm ([1]; Time 100 min): 10.569% | percentage content of complexed products at 254 nm ([1]; Time 200 min): 17.191% | percentage content of complexed products at 254 nm ([1]; Time 300 min): 22.182% | Area under the curve AUC ([1]; nonanal 1.0 eq, compound 1.0 eq, 20-23° C., 10-300 min, HPLC 254 nm): 3979 min. Conversion | Slope (linear equation of percentage content of complexed products vs time) ([1]; nonanal 1.0 eq, compound 1.0 eq, 20-23° C., 10-300 min, HPLC 254 nm, in %/min): 0.0652

Source: patent publication US12479823B2, “Compound for use in retinal diseases” (ZHUHAI UNITED LABORATORIES CO., LTD., priority 2018, dated 2025)
